Reference: paper PMC11237035, “Glutathione determines chronic myeloid leukemia vulnerability to an inhibitor of CMPK and TMPK” (Communications Biology, 2024)
“And” between values parts separate entries of the source, which are not always exact repeats. Equal values may be shown once. Blank lines part the entries; values can stand above or below the compound they belong to.

Assays:
hTMPK = biological target: T1, hTMPK (Homo sapiens, UniProt P23919); test: biochemical
T1 sequence (P23919 1-212): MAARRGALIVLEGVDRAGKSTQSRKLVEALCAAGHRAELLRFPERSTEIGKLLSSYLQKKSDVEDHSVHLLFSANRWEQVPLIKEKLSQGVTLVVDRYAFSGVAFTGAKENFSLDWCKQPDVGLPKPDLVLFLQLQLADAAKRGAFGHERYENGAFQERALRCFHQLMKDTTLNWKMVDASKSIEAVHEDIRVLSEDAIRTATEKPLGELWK

untransformed 32D cells = test: CCK-8 cell viability assay, untransformed 32D cells; assay type: cell-based, mouse; settings: for viability (0 = 100): Untransformed
Description: After 72 h, viability assays were performed.
3 independent experiments. Asterisks denote ***p<0.001 from non-paired two-tailed

T315I-Bcr-Abl-32D cells [1] = test: CCK-8 cell viability assay, T315I-Bcr-Abl-32D cells; assay type: cell-based, mouse; settings: for viability (0 = 100): T315I-Bcr-Abl
T315I-Bcr-Abl-32D cells [2] = test: GSH/GSSG-Glo measurement, T315I-Bcr-Abl-32D cells; assay type: cell-based, mouse
Description: (§1) The GSH/GSSG-Glo™ Assay Kit (Promega, V6611) was used for luminescent-based measurement of cellular GSH and GSSG by Tecan Spark 10 microplate reader.

T315I-Bcr-Abl-32D cells [3] = test: DNA fiber assay (replication speed), T315I-Bcr-Abl-32D cells; assay type: cell-based, mouse; settings: T315I-Bcr-Abl-32D cells, BSO 12.5 μM, 16 h
Description: (§2) The workflow of DNA fiber labeling (Right). The representative labeled fibers are shown below. Replication speed in kb/min was calculated by the measured length of IdU (green) linking to CldU (red) in μm with a conversion factor of 0.34 μm/kb divided by the duration of the labeling pulse (Scale bar = 10 μm). The gray triangle indicates the boundary between red fluorescence and green fluorescence. c The measurement of intracellular ROS by the fluorescence intensity of CellROX Green staining using flow cytometric analysis. Data are presented as mean intensity relative to untransformed 32D cells. d, e The measurement of GSSG and GSH. […] Schematic illustration of the metabolic path U-^13C glutamine incorporation into the GSH (left). Gray and white circles indicate ^13C-label, and unlabeled ^12C, respectively. The traced isotopologue abundance of GSH is shown (right).
(§3) The DNA fiber assay was performed as described previously. Briefly, cells were sequentially treated with the medium containing 25 μM of CldU (Sigma-Aldrich, C6891) and then 250 μM of IdU (Sigma-Aldrich, I7125) for 20 min. After washing, cells were suspended in PBS (1000 cells/ μL). 2 μL of cell suspension was spotted on slides. […] The lengths of red- and green-labeled fibers were determined by FluoView3.0 software (Olympus).

WT-Bcr-Abl-32D cells [4] = test: CCK-8 cell viability assay, WT-Bcr-Abl-32D cells; assay type: cell-based, mouse; settings: WT-Bcr-Abl, single replicates
WT-Bcr-Abl-32D cells [5] = test: GSH/GSSG-Glo measurement, WT-Bcr-Abl-32D cells; assay type: cell-based, mouse
Description: as §1

WT-Bcr-Abl-32D cells [6] = test: DNA fiber assay (replication speed), WT-Bcr-Abl-32D cells; assay type: cell-based, mouse; settings: NAC 1 mM, 16 h
Description: as §2, §3

[7] = AraC 0.25 μM, single replicates

IC50 (hTMPK): 290 nM
SMILES: CC(C)(C)OC(=O)N1CCN(C(=O)Cn2sc3ccccc3c2=O)CC1 [JMF2977]

SMILES: CCCCS(=N)(=O)CCC(N)C(=O)O (stereo not drawn) [BSO, buthionine sulphoximine]
viability (vehicle, 0 = 100) (untransformed 32D cells; 32D cells, BSO 12.5 μM alone (JMF4073 0), single replicates): 83.2384 and 115 and 94.5481
cell viability (% of NT, 0 JMF4073), Figure 5e (T315I-Bcr-Abl-32D cells [1]; T315I, BSO alone (JMF4073 0), single replicates): 99.4456 and 92 and 86.6884
growth of cells, BSO alone (T315I-Bcr-Abl-32D cells [1]; T315I-Bcr-Abl cells, BSO treatment alone): did not suppress the growth
GSH% (T315I-Bcr-Abl-32D cells [2]; Figure 5c, T315I-Bcr-Abl, BSO vs NT = 100, single replicates): 10.69% and 9.7% and 22.3%
cellular level of GSH (T315I-Bcr-Abl-32D cells [2]; T315I-Bcr-Abl-32D cells, BSO 12.5 μM, 16 h): reduced
lengths of replication tracks (T315I-Bcr-Abl-32D cells [3]): reduced

SMILES: CC(=O)N[C@@H](CS)C(=O)O [NAC, N-Acetyl-Cysteine]
cell viability (% of NT vehicle), Figure 5h (WT-Bcr-Abl-32D cells [4]; NAC with vehicle): 96.5592 and 69.512 and 104.601
GSH% (WT-Bcr-Abl-32D cells [5]; Figure 5f, WT-Bcr-Abl, NAC vs NT = 100, single replicates): 161.382% and 219.818% and 187.248% and 315.164%
cellular GSH level (WT-Bcr-Abl-32D cells [5]; WT-Bcr-Abl-32D cells, NAC 1 mM, 16 h): increased the cellular GSH level
lengths of replication tracks (WT-Bcr-Abl-32D cells [6]): increased lengths of replication tracks

SMILES: Nc1ccn([C@@H]2O[C@H](CO)[C@@H](O)[C@@H]2O)c(=O)n1 [ara-C, cytosine arabinoside]
viability (0 = 100) (untransformed 32D cells; [7]): 80.5922 and 25.4877 and 20.7295
viability (0 = 100) (untransformed 32D cells; AraC 0.5 μM, single replicates): 32.0177 and 10.1455 and 8.811
viability (0 = 100) (untransformed 32D cells; AraC 1 μM, single replicates): 12.3749 and 4.297 and 2.7153
viability (0 = 100) (untransformed 32D cells; AraC 2 μM, single replicates): 4.929 and -0.8077 and -0.4748
sensitivity compared among WT-, T315I-Bcr-Abl-32D and untransformed 32D progenitor cells (untransformed 32D cells; viability assays): similar
viability (0 = 100) (WT-Bcr-Abl-32D cells [4]; AraC 0.25 μM): 45.2109 and 73.8346 and 101.332
viability (0 = 100) (WT-Bcr-Abl-32D cells [4]; AraC 0.5 μM): 24.4529 and 41.8769 and 43.1257
viability (0 = 100) (WT-Bcr-Abl-32D cells [4]; AraC 1 μM): 7.238 and 10.5227 and 12.1803
viability (0 = 100) (WT-Bcr-Abl-32D cells [4]; AraC 2 μM): 1.535 and 1.964 and 2.059
viability (0 = 100) (T315I-Bcr-Abl-32D cells [1]; [7]): 91.0147 and 59.6875 and 56.2982
viability (0 = 100) (T315I-Bcr-Abl-32D cells [1]; AraC 0.5 μM, single replicates): 23.443 and 24.5051 and 17.9316
viability (0 = 100) (T315I-Bcr-Abl-32D cells [1]; AraC 1 μM, single replicates): 4.479 and 5.149 and 3.231
viability (0 = 100) (T315I-Bcr-Abl-32D cells [1]; AraC 2 μM, single replicates): 0.8258 and 1.3128 and 0.8788
